Experimental data published in patent publication US9642897B2, “Treatment of bone diseases” (THE UNIVERSITY OF SYDNEY, priority 2011, dated 2017).

Legend:
[1] = Pharmacokinetics of oral PA: serum concentrations by GC-MS; type: in vivo, C57BL/6 mice
From the text: (§1) Nine-month-old oophorectomised (OVX) and SHAM-operated C57BL/6 mice (n=24 per group) were obtained from the Animal Resources Centre (Perth, Wash.). After 2 weeks of acclimation, mice were divided into four groups (Table 2) and received treatment in their drinking water for a total of 6 weeks. Mice treated with plain water were used as controls. Mice were housed in cages in a limited access room.
For absorption analysis of minerals in the duodenum, tissue was dissected and left to dry up in room temperature. 100 mg of tissue were dissolved in nitric acid and concentrations of nine minerals was quantified in the tissue homogenates using an Agilent 5973 mass selective detector via an auto-sampler Agilent Technologies 7683, and controlled using Agilent ChemStation software (Agilent, Santa Clara, Calif., USA). For pharmacokinetic analysis of PA, serum of Pa- and vehicle-treated animals was obtained by centrifugation. 1 μl of serum was injected into an Agilent 6890 gas chromato-graph, interfaced to an Agilent 5973 mass selective detector via an auto-sampler Agilent Technologies 7683, and controlled using Agilent ChemStation software (Agilent, Santa Clara, Calif., USA).

[2] = test system: bone marrow stromal cells (BMSC); assay: Ex vivo cultures of BMSC from PA-treated mice (alizarin red, ALP, CFU-OB); type: in vivo, C57BL/6 mice
Experimental: To establish adherent bone marrow cultures, both tibiae from PA- and vehicle-treated animals (n=6 per group) were flushed using a 21-gauge needle attached to a 10 ml syringe filled with Dulbecco's modified Eagle's Medium (DMEM) (GIBCO BRL, Gaithersburg, Md., USA). Cells from both tibiae were filtered through a cell strainer with 70-micron nylon mesh (BD Bioscience, Bedford, Mass., USA) and then combined to produce a volume of 2 ml containing ˜10^7 cells/ml. Six-well plate cultures were then established in triplicate, with each well containing a 100-μl aliquot of cell suspension combined with 4 ml of fresh -MEM medium. […]
To induce differentiation, a total of 10^4 cells were diluted in osteogenic medium (prepared with DMEM, 10% FCS, […] dexamethasone, 10 mmol/L β glycerol phosphate and 50 μg/mL ascorbic acid) and plated in six well plates. […] For alkaline phosphatase quantification, the colonies with more than 10% of cells staining positive for ALP were considered as colony forming units-osteoblasts (CFU-OB). For alizarin red quantification, matrix mineralization was quantified by extracting the Alizarin red staining with 100 mM cetypyridinium chloride (Sigma, St. Louis, Mo., USA) at room temperature for 3 h. The absorbance of the extracted Alizarin red S staining was measured at 570 nm.

[3] = test system: OVX C57BL/6 mice (osteoporosis model); assay: Quantitative μCT of femur and vertebrae in Sham and OVX mice; type: in vivo; conditions: oral PA 6 weeks
Experimental: Nine-month-old oophorectomised (OVX) and SHAM-operated C57BL/6 mice (n=24 per group) were obtained from the Animal Resources Centre (Perth, Wash.). After 2 weeks of acclimation, mice were divided into four groups (Table 2) and received treatment in their drinking water for a total of 6 weeks. Mice treated with plain water were used as controls. Mice were housed in cages in a limited access room. Mice were administered a lethal dose of anaesthetic at the indicated times, exsanguinated, and imaged using a Faxitron MX20 equipped with an FPX-2 Imaging system (Dalsa Medoptics, Waterloo, Ontario, Canada). μ-CT was performed on the left femur and lumbar vertebrae after removal of soft tissues and overnight fixation in 4% paraformaldehyde. The distal metaphysis of the femur and the body of the vertebrae were scanned with a Skyscan 1072 micro-CT instrument (Skyscan, Antwerp, Belgium). Image acquisition was performed at 100 kV and 98 μA, with a 0.9° rotation between frames. The two-dimensional images were used to generate three-dimensional reconstructions to obtain quantitative data with the 3D Creator software supplied with the instrument. Nomenclature and abbreviations of 3D-μCT parameters follow the recommendations of the American Society of Bone and Mineral Research (see Bouxsein et al. (2010), “Guidelines for assessment of bone microstructure in rodents using micro-computed tomography”, J Bone Miner Res., 25: 1468-1486).

[4] = test system: RUNX2, OCN and OPN; assay: Osteogenic gene expression (RUNX2, OCN, OPN) in differentiating MSC; type: cell-based, human
Experimental: Subsequently, the effect of chemical inhibition/stimulation of the intermediate and end products of kynurenine activation on osteogenic differentiating MSC was then characterised.
These compounds were added to the MSC media on day one of differentiation. […] Media was changed every three days. […]

[5] = test system: OVX C57BL/6 mice (osteoporosis model); assay: Bone histology and dynamic histomorphometry in Sham and OVX mice; type: in vivo
From the text: as §1
For dynamic histomorphometry, tetracycline labelling was achieved through the intraperitoneal injection of demeclocycline (20 mg/kg) (Sigma Chemicals, St. Louis, Mo., USA) to the three treated groups at 5 and 2 days before sacrifice. One side femur from each animal in each group was removed at the time of killing, fixed in 70% ethanol, dehydrated, and embedded undecalcified in methylmethacrylate (J-T Baker, Phillipsburg, N.J., USA). At 50 μm intervals, longitudinal sections of 5 and 8 μm thick were cut using a polycut-E microtome (Reichert-Jung Leica, Heerbrugg, Switzerland), placed on gelatine-coated glass slides, deplastified and stained with Goldner's trichrome. Histomorphometry was done with a semi-automatic image analysing system combining a microscope equipped with a camera lucida and digitizing tablet linked to a computer using the OsteoMeasure Software (Osteometrics Inc., Decatur, Ga., USA). Nomenclature and abbreviations of histomorphometric parameters follow the recommendations of the American Society of Bone and Mineral Research (see Parfitt et al. (1987), “Bone histomorphometry: Standardization of nomenclature, symbols and units”, J Bone Miner Res., 2: 595-610.)

[6] = highest dose (100 μM), 14 days post-induction

O=C(O)c1ccccn1 [PA, pyridine-2-carboxylic acid]
serum concentrations of PA at higher dose ([1]; higher dose vs 0.5 gm/Kg/d): not followed by higher serum concentrations
serum concentrations of PA, OVX vs SHAM counterpart ([1]; low dose of PA): lower serum concentrations
serum concentrations of PA ([1]; oral PA in drinking water, 6 weeks, Sham and OVX mice): increased in the treated groups in a dose-dependent manner
capacity to mineralise (alizarin red), ex vivo BMSC ([2]; SHAM and OVX mice treated 6 weeks, 2 weeks culture in osteogenic media): significantly capacity to mineralise
number of colony forming units-osteoblasts (CFU-OB) ([2]; cultures from PA-treated vs vehicle treated mice): significantly higher
bone relative to tissue volume (BV/TV) [3]: significant and dose-dependent increase
numbers of trabeculae (Tb.N) [3]: increased
thickness of trabeculae (Tb.Th) [3]: increased
relative gene expression of RUNX2, OCN and OPN ([4]; differentiating MSC): increased
RE of RUNX2 [4, 6]: 1.43
RE of osteocalcin [4, 6]: 1.93
RE of osteopontin [4, 6]: 1.35
bone turnover (fluorochrome double labelling) ([5]; Sham and OVX mice, oral PA 6 weeks): significant and dose-dependent increase in bone turnover
mineral apposition rates (MAR) ([5]; trabecular and cortical bone, vs vehicle): increased mineral apposition rates
mineralized bone (Von Kossa labelling) ([5]; vs untreated controls): higher levels of mineralized bone
